According to US20170198337A1, “HIGH THROUGHPUT TELOMERIC CIRCLE ASSAY” (SENS FOUNDATION, INC., priority 2014, published 2017):

How the values were obtained:
[1] = system: ALT-positive cells; settings: reported in the literature; cited from earlier work
[2] = system: ALT-positive cell lines; experiment: CC EATR assay, C-circle content of cells treated with hydroxyurea, 96-well plates; assay type: cell-based, human; settings: high-throughput format, FIG. 14
Description: FIG. 14 depicts the detection of experimentally modulated ALT levels using the CC EATR assay. Treatment of cells with hydroxyurea (HU) decreases ALT levels. […] This experiment was performed in a high-throughput format in a 96-well plates.
For the fluorescence-based detection of RCA-mediated, CC-derived products (FIGS. 3 and 4, illustrating exonuclease digestion from the 5′ or 3′ terminus, respectively), 20 μL of each sample post-RCA (a single reaction per sample) was combined with 20 μL of 0.1 mg/ml BSA, 3 mM DTT, 0.05% Tween, 10 mM Bis-Tris-Propane-HCl, 10 mM MgCl2 (final pH 7.0 at 25 degrees C.), 2.5 U of Exonuclease III or 10 U of T7 Exonuclease (NEB), and 100 nM of (CCCTAA)2 probe labeled at the 5′ end with a 6-Carboxyfluorescein (FAM) fluorophore and a ZEN internal quencher (Integrated DNA Technologies) at the first T position. […] Fluorescence signals were collected using Applied Biosystems StepOnePlus Real-Time PCR system configured to acquire data from FAM/FITC filter sets and the reaction was run at 37° C. for 1 hour with signal being collected at 0 min and then every 15 min thereafter. […]
On day 0, passage 50 U2OS cells were seeded into a 10 cm plate, a 6 well plate, a 24 well plate and a 96 well plate at quantities of 5×10^5, 3×10^5, 1×10^4 and 1×10^4 per well respectively. […]

## NC(=O)NO [hydroxyurea]
[1]
  ALT activity of ALT-positive cells upon treatment: decreased ALT activity
[2]
  C-circle content of ALT-positive cell lines after HU treatment: significant decreases
